# Results: ChEMBL document CHEMBL3044907, “Sensitivity of Fusarium verticillioides isolates from rice to a novel cyanoacrylate fungicide” (Crop Prot, 2012)
# Assays:
# [1] = test system: Fusarium verticillioides; assay: (§1) Fungicidal activity against Fusarium verticilliodes isolate YZ04 in rice seeds harvested from bakane diseased plants assessed as number of seedlings abnormally elongated or exhibiting symptoms of damping-off at 8.33 ug/ml at 30 degC incubated for 72 hr measured after 3 days under greenhouse trials (reference value: 44.2%); format: functional
# [2] = test system: Fusarium verticillioides; assay: as §1, with “N06” for “YZ04”, “25” for “8.33”, “9.6%)” for “44.2%)”; format: functional
# [3] = test system: Fusarium verticillioides; assay: as §1, with “N05” for “YZ04”, “25” for “8.33”, “6.2%)” for “44.2%)”; format: functional
# [4] = test system: Fusarium verticillioides; assay: as §1, with “JS05” for “YZ04”, “25” for “8.33”, “36.4%)” for “44.2%)”; format: functional
# [5] = test system: Fusarium verticillioides; assay: as §1, with “YZ12” for “YZ04”, “25” for “8.33”, “45.8%)” for “44.2%)”; format: functional
# [6] = test system: Fusarium verticillioides; assay: as §1, with “YZ07” for “YZ04”, “25” for “8.33”, “43.2%)” for “44.2%)”; format: functional
# [7] = test system: Fusarium verticillioides; assay: as §1, with “JS08” for “YZ04”, “6.25” for “8.33”, “13.0%)” for “44.2%)”; format: functional
# [8] = test system: Fusarium verticillioides; assay: as §1, with “N02” for “YZ04”, “6.25” for “8.33”, “41.2%)” for “44.2%)”; format: functional
# [9] = test system: Fusarium verticillioides; assay: as §1, with “YZ22” for “YZ04”, “6.25” for “8.33”, “22.5%)” for “44.2%)”; format: functional
# [10] = test system: Fusarium verticillioides; assay: as §1, with “YZ11” for “YZ04”, “6.25” for “8.33”, “33.7%)” for “44.2%)”; format: functional
# [11] = test system: Fusarium verticillioides; assay: as §1, with “YZ10” for “YZ04”, “6.25” for “8.33”, “49.2%)” for “44.2%)”; format: functional
# [12] = test system: Fusarium verticillioides; assay: as §1, with “JS06” for “YZ04”, “12.5” for “8.33”, “25.2%)” for “44.2%)”; format: functional
# [13] = test system: Fusarium verticillioides; assay: as §1, with “JS05” for “YZ04”, “12.5” for “8.33”, “36.4%)” for “44.2%)”; format: functional
# [14] = test system: Fusarium verticillioides; assay: as §1, with “JS04” for “YZ04”, “12.5” for “8.33”, “16.2%)” for “44.2%)”; format: functional
# [15] = test system: Fusarium verticillioides; assay: as §1, with “N05” for “YZ04”, “12.5” for “8.33”, “6.2%)” for “44.2%)”; format: functional
# [16] = test system: Fusarium verticillioides; assay: as §1, with “N04” for “YZ04”, “12.5” for “8.33”, “14.5%)” for “44.2%)”; format: functional
# [17] = test system: Fusarium verticillioides; assay: as §1, with “N02” for “YZ04”, “12.5” for “8.33”, “41.2%)” for “44.2%)”; format: functional
# [18] = test system: Fusarium verticillioides; assay: as §1, with “JS09” for “YZ04”, “25” for “8.33”, “32.6%)” for “44.2%)”; format: functional
# [19] = test system: Fusarium verticillioides; assay: as §1, with “JS07” for “YZ04”, “25” for “8.33”, “33.8%)” for “44.2%)”; format: functional
# [20] = test system: Fusarium verticillioides; assay: as §1, with “YZ22” for “YZ04”, “12.5” for “8.33”, “22.5%)” for “44.2%)”; format: functional
# [21] = test system: Fusarium verticillioides; assay: as §1, with “N03” for “YZ04”, “36.1%)” for “44.2%)”; format: functional
# [22] = test system: Fusarium verticillioides; assay: as §1, with “YZ10” for “YZ04”, “12.5” for “8.33”, “49.2%)” for “44.2%)”; format: functional
# [23] = test system: Fusarium verticillioides; assay: as §1, with “YZ09” for “YZ04”, “12.5” for “8.33”, “17.5%)” for “44.2%)”; format: functional
# [24] = test system: Fusarium verticillioides; assay: as §1, with “YZ01” for “YZ04”, “12.5” for “8.33”, “33.6%)” for “44.2%)”; format: functional
# [25] = test system: Fusarium verticillioides; assay: as §1, with “YZ01” for “YZ04”, “25” for “8.33”, “33.6%)” for “44.2%)”; format: functional
# [26] = test system: Oryza sativa; assay: Effect on emergence of healthy Oryza sativa (rice) seedlings measured after seeds germinated; format: ADME, organism-based; details: in vivo
# [27] = test system: Oryza sativa; assay: Effect on germination of healthy Oryza sativa (rice) seed cultivar Fengliangyou 4 at 6.25 to 25 ug/ml at 25 degC after 72 hr; format: ADME, organism-based; details: in vivo
# [28] = test system: Oryza sativa; assay: Effect on germination of healthy Oryza sativa (rice) seed cultivar Xinliangyou 6 at 6.25 to 25 ug/ml at 25 degC after 72 hr; format: ADME, organism-based; details: in vivo
# [29] = test system: Fusarium verticillioides; assay: as §1, with “YZ11” for “YZ04”, “33.7%)” for “44.2%)”; format: functional
# [30] = test system: Fusarium verticillioides; assay: as §1, with “YZ08” for “YZ04”, “19.8%)” for “44.2%)”; format: functional
# [31] = test system: Fusarium verticillioides; assay: as §1, with “YZ07” for “YZ04”, “43.2%)” for “44.2%)”; format: functional
# [32] = test system: Fusarium verticillioides; assay: as §1, with “YZ06” for “YZ04”, “45.3%)” for “44.2%)”; format: functional
# [33] = test system: Fusarium verticillioides; assay: as §1, with “YZ05” for “YZ04”, “33.3%)” for “44.2%)”; format: functional
# [34] = test system: Fusarium verticillioides; assay: as §1, with “JS05” for “YZ04”, “6.25” for “8.33”, “36.4%)” for “44.2%)”; format: functional
# [35] = test system: Fusarium verticillioides; assay: as §1, with “JS02” for “YZ04”, “6.25” for “8.33”, “24.9%)” for “44.2%)”; format: functional
# [36] = test system: Fusarium verticillioides; assay: as §1, with “N05” for “YZ04”, “6.25” for “8.33”, “6.2%)” for “44.2%)”; format: functional
# [37] = test system: Fusarium verticillioides; assay: as §1, with “N04” for “YZ04”, “6.25” for “8.33”, “14.5%)” for “44.2%)”; format: functional
structure (smiles),measurement,setting,value
CCOC(=O)/C(C#N)=C(/N)c1ccccc1,Activity,[1],0%
same,Activity,[2],0%
same,Activity,[3],0%
same,Activity,[4],0%
same,Activity,[5],0%
same,Activity,[6],0%
same,Activity,[7],3.6%
same,Activity,[8],2.2%
same,Activity,[9],2.7%
same,Activity,[10],4.5%
same,Activity,[11],3.8%
same,Activity,[12],0%
same,Activity,[13],0%
same,Activity,[14],0%
same,Activity,[15],0%
same,Activity,[16],0%
same,Activity,[17],0%
same,Activity,[18],0%
same,Activity,[19],0%
same,Activity,[20],0.5%
same,Activity,[21],0%
same,Activity,[22],0%
same,Activity,[23],0%
same,Activity,[24],0%
same,Activity,[25],0%
same,Activity,[26],Non-toxic
same,Activity,[27],Non-toxic
same,Activity,[28],Non-toxic
same,Activity,[29],0.8%
same,Activity,[30],0%
same,Activity,[31],0%
same,Activity,[32],0%
same,Activity,[33],0%
same,Activity,[34],2.8%
same,Activity,[35],2%
same,Activity,[36],0.4%
same,Activity,[37],1.8%
